Values quoted from earlier work as cited in patent publication US20090029375A1, “GENETIC MODELS FOR STRATIFICATION OF CANCER RISK” (Intergenetics, Inc., priority 2007, published 2009).

Experiments:
[1] = tested on: rat mammary carcinoma induced by dimethylbenzanthracene (DMBA)
estrogen receptors = details: preclinical data, uterine and breast tissues
breast cancer = details: osteoporosis prevention/treatment study

Q: Which “induction of rat mammary carcinoma” value [1] does the source give for `CC/C(=C(\c1ccccc1)c1ccc(OCCN(C)C)cc1)c1ccccc1` [tamoxifen] here?
A: inhibits the induction

Q: For `O=C(c1ccc(OCCN2CCCCC2)cc1)c1c(-c2ccc(O)cc2)sc2cc(O)ccc12` [raloxifene], which estrogen antagonism (estrogen receptors) is on record?
A: estrogen antagonist

Q: What about the “effect on incidence of breast cancer” value (breast cancer) of the same molecule?
A: reduce the incidence of breast cancer
